Reference: patent US6391614B1, “Auxiliary gene and protein of methicillin resistant bacteria and antagonists thereof” (priority 1995, dated 2002)
In brackets after ≈: the same amount, converted by molar mass. Like-named read-outs stand apart in the source and are kept apart here.

Columns and labels:
SWTD5 (RUSA12F/pGCSW-3) = assay: Standard disk susceptibility, transductant SWTD5; assay type: cell-based, Staphylococcus aureus; settings: SWTD5 versus recipient RUSA12F; FIG. 5
Protocol: (§1) Susceptibility testing and population analysis. One colony of bacterial strain was inoculated into 5 ml of TSB (tryptic soy broth, Difco Laboratories) and incubated at 37° C. with 200 rpm rotation for overnight. Culture density (OD600) was adjusted to give a viable titer of 10^8 to 10^9 cfu/ml. Sterile swabs were dipped into the bacterial suspension and applied to TSA (tryptic soy agar, Difco Laboratories) plates without antibiotics, and 6-mm-diameter disks containing antibiotics were applied to the plates with a disk dispenser (BBL, Beckton-Dickinson and Company). The antibiotics used were as follows: […] of methicillin, 10 U of penicillin, 30 μg of cefazolin, 20 μg of ampicillin/sulbactam, 15 μg of erythromycin, 10 μg of gentamicin, 30 μg of tetracycline, 30 μg chloramphenicol, 5 μg of rifampin, and 5 μg of ciproflaxin (BBL, Becton Dickinson and Company). Diameters of inhibition zones were read after incubation at 37° C. for 24 h. To perform population analysis, aliquots of overnight cultures were spread onto TSA plates containing increasing concentrations of methicillin. CFU were determined after 48 h of incubation at 37° C. [de Lencastre et al., Antimicrob Agents Chemother. 35:632-639 (1991)].
(§2) Complementation analysis with plasmid pGCSW-3. Plasmid pGCSW-3 was transformed into S. aureus RN4220 (r-) by electroporation and the electro-transformant SWET3 was used as donor to introduce pGCSW-3 into recipients RUSA315 and RUSA12F.

SWTD3 (RUSA315/pGCSW-3) [1] = assay: Standard disk susceptibility, transductant SWTD3; assay type: cell-based, Staphylococcus aureus; settings: SWTD3 versus recipient RUSA315; FIG. 5
Protocol: as §1, §2

strain COL = settings: peptidoglycan composition; cited from earlier work
[2] = system: mecA Tn551 transposon mutant; settings: Tn551 inserted into mecA; cited from earlier work
[3] = system: staphylococci without the mecA gene; settings: bacteria without mecA; cited from earlier work
[4] = system: Tn551 insertional (auxiliary) mutants; assay: Methicillin MIC, Tn551 auxiliary mutants with intact mecA; assay type: cell-based; settings: Staphylococcus aureus, read-out: methicillin MIC
four staphylococcal PBPs = settings: in vitro; cited from earlier work
MRSA strain COL [5] = assay: Methicillin MIC, parental highly methicillin resistant strain COL; assay type: cell-based, Staphylococcus aureus
Protocol: as §1

MRSA strain COL [6] = settings: cited from earlier work
[7] = system: Tn551 insertional (auxiliary) mutants; settings: cited from earlier work
SWTD3 (RUSA315/pGCSW-3) [8] = assay: Population analysis on methicillin-containing TSA plates, SWTD3; assay type: cell-based, Staphylococcus aureus; settings: SWTD3, data not shown
Protocol: as §1

[9] = system: mutant RUSA315 (femR315::Tn551); assay: Methicillin MIC, Tn551 insertional mutant RUSA315; assay type: cell-based; settings: Staphylococcus aureus
Protocol: as §1

Cc1nnc(SCC2=C(C(=O)O)N3C(=O)[C@@H](NC(=O)Cn4cnnn4)[C@H]3SC2)s1 [cefazoline, cefazolin]
antimicrobial susceptibility (disk, inhibition zone) (SWTD5 (RUSA12F/pGCSW-3)): restored resistance | antimicrobial susceptibility (disk, inhibition zone) (SWTD3 (RUSA315/pGCSW-3) [1]): restored resistance

COc1cccc(OC)c1C(=O)N[C@@H]1C(=O)N2[C@@H]1SC(C)(C)[C@@H]2C(=O)O [methicillin]
critical concentration at which a new cell wall synthetic machinery, presumably PBP2A, takes over (strain COL): about 5 mg/L | MIC [2]: about 4 μg/ml | methicillin MIC [3]: 1 to 2 µg/mL | MIC [4]: 1.5 to 200 µg/mL (≈ 3.94 to 526 µM) | methicillin concentration range within which all four normal PBPs become fully acylated (four staphylococcal PBPs): 5 to 10 mg/L | MIC (MRSA strain COL [5]; Staphylococcus aureus, MRSA, read-out: methicillin MIC): 1600 µg/mL (≈ 4210 µM) | methicillin MIC (MRSA strain COL [5]; parental MRSA strain COL): 1600 µg/mL | methicillin MIC (MRSA strain COL [6]; highly resistant strain COL): 1600 µg/mL | MIC (MRSA strain COL [6]; parental bacterium before Tn551 inactivation): 1600 µg/mL (≈ 4210 µM) | methicillin MIC ([7]; Tn551 mutants still producing normal amounts of PBP2A): 3 µg/mL | MIC ([7]; inactivation of auxiliary genes, PBP2A present): 3 mg methicillin per liter | level of methicillin resistance by population analysis (SWTD3 (RUSA315/pGCSW-3) [8]): same level of methicillin resistance as the parental Mc^r strain COL | MIC [9]: 12 to 25 µg/mL (≈ 31.5 to 65.7 µM) | MIC ([9]; RUSA315, Tn551 insert Ω720, read-out: methicillin MIC): 1.5 µg/mL (≈ 3.94 µM) | antimicrobial susceptibility (disk, inhibition zone) (SWTD5 (RUSA12F/pGCSW-3)): restored resistance | antimicrobial susceptibility (disk, inhibition zone) (SWTD3 (RUSA315/pGCSW-3) [1]): restored resistance

ampicillin/sulbactam [ampicillinisulbactam]
antimicrobial susceptibility (disk, inhibition zone) (SWTD5 (RUSA12F/pGCSW-3)): restored resistance | antimicrobial susceptibility (disk, inhibition zone) (SWTD3 (RUSA315/pGCSW-3) [1]): restored resistance

penicillin
antimicrobial susceptibility (disk, inhibition zone) (SWTD5 (RUSA12F/pGCSW-3)): restored resistance | antimicrobial susceptibility (disk, inhibition zone) (SWTD3 (RUSA315/pGCSW-3) [1]): restored resistance
